Values joined by “and” are separate entries in the source; they are usually repeats but may differ in a detail not shown here. Equal values may be shown once. Read-outs that look alike come from different tables or passages of the source.
Legend:
[1] = Mouse liver microsome stability in the absence of cofactors (NCF); details: 60 min, no cofactor (NCF); for Raw data: analyte peak area, T=60 NCF: mouse liver microsomes, raw LC-MS area; for remaining at 1 h, 1 µM: mouse, microsomes, pH 7.4, % Remaining, T=60 NCF
in vitro [2] = experiment: in vitro
Protocol: Solutions of the compounds were prepared in duplicate by diluting the stock solutions (10 mM) in phosphate buffered saline (PBS) pH 7.4 at a final concentration of 10 μM (5% DMSO). The solutions diluted in PBS pH 7.4 were then added to the donor portion of the plate (300 μL/well), while in the acceptor portion PBS pH 7.4 (200 μL/well) was added. The two portions of the plate were then coupled, and the system was incubated for 6 h at room temperature. Samples of the initial donor solution (T0) were collected at the beginning (T0) and stored at 5 °C. The final concentrations of compounds in the donor, acceptor and T0 wells were quantified by LC-MS/MS.

[3] = test system: Leishmania braziliensis promastigotes; experiment: Leishmanicidal activity, promastigote growth (SYBR Green, 72 h); type: cell-based, Leishmania (V.) braziliensis (MHOM/BR/1975/M2904); details: L. braziliensis promastigotes, max 200 μM
In short: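 Promastigotes seeded at 4 × 10^6 parasites/mL with compounds in decreasing concentrations up to 200 μM, 0.5% DMSO final, 72 h.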

LbDHODH = LbDHODH (Leishmania braziliensis, UniProt E9AI53); experiment: biochemical; details: for IC50: LbDHODH
Chain of LbDHODH (E9AI53 entry or part of it): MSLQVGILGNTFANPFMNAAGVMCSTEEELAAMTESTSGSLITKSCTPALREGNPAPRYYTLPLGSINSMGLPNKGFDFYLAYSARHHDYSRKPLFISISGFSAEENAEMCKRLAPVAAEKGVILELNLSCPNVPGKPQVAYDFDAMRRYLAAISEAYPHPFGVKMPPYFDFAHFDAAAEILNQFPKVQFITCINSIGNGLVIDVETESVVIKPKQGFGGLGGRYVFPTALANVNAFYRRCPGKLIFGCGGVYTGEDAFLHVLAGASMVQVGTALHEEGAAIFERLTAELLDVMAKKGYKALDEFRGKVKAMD
In short: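 Screened at 100 μM with and without 4-h enzyme preincubation; DCIP reduction during DHO oxidation read at 610 nm every 3 s for 60 s in 50 mM Tris pH 8.15, 150 mM KCl, 0.1% Triton X-100, triplicate, 5% DMSO control. kinact/KI taken as slope of kobs versus inhibitor concentration (initial linear region).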

[4] = for Raw data: analyte peak area, T=0: 0 min; for Raw data: analyte peak area, T=0 / Raw data: analyte peak area, T=5 / Raw data: analyte peak area, T=10 / Raw data: analyte peak area, T=20 / Raw data: analyte peak area, T=30 / Raw data: analyte peak area, T=60: raw LC-MS area; for Raw data: analyte peak area, T=5: 5 min; for Raw data: analyte peak area, T=10: 10 min; for Raw data: analyte peak area, T=20: 20 min; for Raw data: analyte peak area, T=30: 30 min; for Raw data: analyte peak area, T=60: 60 min
in vitro [5] = details: microsomes; for microsomal CLint at 1 μM / remaining at 5 min, 1 μM: male, CD1, mouse; for remaining at 5 min, 1 μM / remaining at 10 min, 1 µM / remaining at 20 min, 1 µM / remaining at 0.5 h, 1 µM / remaining at 1 h, 1 µM: pH 7.4, % Remaining; for remaining at 5 min, 1 μM: T=5 min; for remaining at 10 min, 1 µM / remaining at 20 min, 1 µM / remaining at 0.5 h, 1 µM / remaining at 1 h, 1 µM: mouse; for remaining at 10 min, 1 µM: T=10 min; for remaining at 20 min, 1 µM: T=20 min; for remaining at 0.5 h, 1 µM: T=30 min, 30 min; for remaining at 1 h, 1 µM: T=60 min, 60 min
[6] = Cell viability / cytotoxicity assay (PrestoBlue, 72 h); type: cell-based; details: human; THP-1 cell line, 72 h, max 200 μM; read-out: CC50
In short: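 PMA-differentiated THP-1 cells (150 ng/mL PMA, 48 h; then 24 h in fresh medium) were exposed to compounds in serial dilution from 200 μM for 72 h at 37 °C, 5% CO2. Viability was read by PrestoBlue fluorescence (ex 560/em 590 nm) after 2 h.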

[7] = n=1, mouse liver microsomes, n=1
[8] = n=2, mouse liver microsomes, n=2
[9] = average of n=2, 10µM, PBS pH 7.4/7.4, 6h at room temperature
[10] = 0 h, pH 8.15, read-out: LbDHODH Activity±SD (%)
[11] = 4 h, pH 8.15, read-out: LbDHODH Activity±SD (%)
[12] = mouse liver microsomes, replicate 1 (left block)
[13] = mouse liver microsomes, replicate 2 (right block)

O=C1NC(=O)C(=C/C=C/c2ccccc2)C(=O)N1 [2i, (E)-5-(3-Phenylallylidene)pyrimidine-2,4,6(1H,3H,5H)-trione]
Raw data: analyte peak area, T=60 NCF ([1]; replicate 1 (left block)): 1230
Raw data: analyte peak area, T=60 NCF ([1]; replicate 2 (right block)): 835
remaining at 1 h, 1 µM [1, 7]: 26.3%
remaining at 1 h, 1 µM [1, 8]: 19.3%
recovery at 6 h, 10 µM (in vitro [2]; PAMPA, pH 7.4, % Recovery n=1, replicate n=1, 10µM, PBS pH 7.4/7.4, 6h at room temperature): 14.3%
recovery at 6 h, 10 µM (in vitro [2]; PAMPA, pH 7.4, % Recovery n=2, replicate n=2, 10µM, PBS pH 7.4/7.4, 6h at room temperature): 15.8%
recovery at 6 h, 10 µM (in vitro [2]; PAMPA, pH 7.4, Avg % Recovery, average of n=2, 10µM, PBS pH 7.4/7.4, 6h at room temperature): 15%
Papp (in vitro [2]; PAMPA, pH 7.4, permeability, PBS pH 7.4, 10 μM, 6 h): 5.75 ×10⁻⁶ cm/s
Avg Log Pe (cm/sec) (in vitro [2]; [9]): -5.2 cm/sec and -5.24 cm/sec
Avg Pe (in vitro [2]; [9]): 5.75 ×10⁻⁶ cm/s
LogPe (cm/sec) n1 (in vitro [2]; replicate n1, calculation section, 10µM, PBS pH 7.4/7.4, 6h): -5.25 cm/sec
LogPe (cm/sec) n2 (in vitro [2]; replicate n2, calculation section, 10µM, PBS pH 7.4/7.4, 6h): -5.23 cm/sec
Pe (nm/sec) n=1 (in vitro [2]; replicate n=1, 10µM (5% DMSO), PBS pH 7.4/7.4, 6h at room temperature, LC-MS/MS): 56.6 nm/s and 56.58 nm/s
% Recovery n=1 (in vitro [2]; replicate n=1, 10µM, PBS pH 7.4/7.4, 6h at room temperature): 14.26%
Pe (nm/sec) n=2 (in vitro [2]; replicate n=2, 10µM (5% DMSO), PBS pH 7.4/7.4, 6h at room temperature, LC-MS/MS): 58.4 nm/s and 58.42 nm/s
% Recovery n=2 (in vitro [2]; replicate n=2, 10µM, PBS pH 7.4/7.4, 6h at room temperature): 15.77%
EC50 [3]: 10.5 ± 3.5 µM
EC50 ([3]; Leishmania braziliensis): 11 ± 5 µM
activity at 0.0976562 µM (LbDHODH; [10]): 80 ± 11%
activity at 0.195312 µM (LbDHODH; [10]): 83 ± 14%
activity at 0.390625 µM (LbDHODH; [10]): 71 ± 17%
activity at 0.78125 µM (LbDHODH; [10]): 72 ± 12%
activity at 1.5625 µM (LbDHODH; [10]): 17 ± 4%
activity at 3.125 µM (LbDHODH; [10]): 11 ± 3%
activity at 6.25 µM (LbDHODH; [10]): 12 ± 3%
activity at 12.5 µM (LbDHODH; [10]): 4 ± 1%
activity at 25 µM (LbDHODH; [10]): 7 ± 3%
activity at 50 µM (LbDHODH; [10]): 4 ± 1%
activity at 100 µM (LbDHODH; [10]): 6 ± 1%
activity at 200 µM (LbDHODH; [10]): 1 ± 0.1%
activity at 0.0976562 µM (LbDHODH; [11]): 94 ± 19%
activity at 0.195312 µM (LbDHODH; [11]): 68 ± 11%
activity at 0.390625 µM (LbDHODH; [11]): 51 ± 9%
activity at 0.78125 µM (LbDHODH; [11]): 38 ± 9%
activity at 3.125 µM (LbDHODH; [11]): 10 ± 3%
activity at 12.5 µM (LbDHODH; [11]): 4 ± 1%
activity at 50 µM (LbDHODH; [11]): 16 ± 0.5%
activity at 200 µM (LbDHODH; [11]): 3 ± 0.4%
IC50 (LbDHODH; IC50 0 h, without preincubation): 0.9 ± 0.3 µM
IC50 (LbDHODH; IC50 4 h, 4-h preincubation): 0.5 ± 0.1 µM
activity at 100 µM (LbDHODH; read-out: Single dose (0h) % activity): 1.1 ± 0.2%
activity at 100 µM (LbDHODH; read-out: Single dose (4h) % activity): 3 ± 2%
inhibition at 100 µM (LbDHODH; read-out: enzyme inhibition): 97%
Calculated T-half (min), Average ([4]; mouse liver microsomes (CD1 male), 0.4 mg/ml protein, test conc 1 µM, average of n=1 and n=2): 2.7 min
Calculated T-half (min), n=1 ([4]; mouse liver microsomes (CD1 male), 0.4 mg/ml protein, test conc 1 µM, replicate n=1): 2.74 min and 2.7 min
Calculated T-half (min), n=2 ([4]; mouse liver microsomes (CD1 male), 0.4 mg/ml protein, test conc 1 µM, replicate n=2): 2.73 min and 2.7 min
Raw data: analyte peak area, T=0 [4, 12]: 4760
Raw data: analyte peak area, T=0 [4, 13]: 4151
Modified T-half (min), Average ([4]; mouse liver microsomes, 0.4 mg/ml, 1 µM, average, limited to T Half range 3.00 - […]): <3.0 min
Remarks (mouse microsomal stability study) ([4]; mouse liver microsomes, 0.4 mg/ml, 1 µM, NCF = no cofactor control): Very fast metabolism; Low NCF
Raw data: analyte peak area, T=5 [4, 12]: 1438
Raw data: analyte peak area, T=5 [4, 13]: 1160
Raw data: analyte peak area, T=10 [4, 12]: 0
Raw data: analyte peak area, T=10 [4, 13]: 0
Raw data: analyte peak area, T=20 [4, 12]: 0
Raw data: analyte peak area, T=20 [4, 13]: 0
Raw data: analyte peak area, T=30 [4, 12]: 0
Raw data: analyte peak area, T=30 [4, 13]: 0
Raw data: analyte peak area, T=60 [4, 12]: 0
Raw data: analyte peak area, T=60 [4, 13]: 0
mouse liver microsomes T-half ([4]; mouse liver microsomes, NADPH, 1 μM): <3.0 min
microsomal CLint at 1 μM (in vitro [5]; pH 7.4): > 578 µL/min/mg
remaining at 5 min, 1 μM (in vitro [5]; [7]): 28.2%
remaining at 5 min, 1 μM (in vitro [5]; [8]): 28.1%
microsomal CLint at 1 μM (in vitro [5]; pH 7.4, mouse liver microsomes CLint, app, mouse liver microsomes, NADPH, 1 μM): > 578 µL/min/mg
remaining at 10 min, 1 µM (in vitro [5]; [7]): 0%
remaining at 10 min, 1 µM (in vitro [5]; [8]): 0%
remaining at 20 min, 1 µM (in vitro [5]; [7]): 0%
remaining at 20 min, 1 µM (in vitro [5]; [8]): 0%
remaining at 0.5 h, 1 µM (in vitro [5]; [7]): 0%
remaining at 0.5 h, 1 µM (in vitro [5]; [8]): 0%
remaining at 1 h, 1 µM (in vitro [5]; [7]): 0%
remaining at 1 h, 1 µM (in vitro [5]; [8]): 0%
CC50 at 72 h [6]: 193 ± 67 µM
